Measured values from US7253286B2, “Nitrogen-containing aromatic derivatives” (Eisai Co., Ltd, priority 2000, dated 2007).
Each block holds one compound with its values, some of them ahead of it.

Target: T1, VEGFR2 (Homo sapiens, UniProt P35968)
T1 construct: coding for the cytoplasmic domain, beginning with lysine 791 and including the termination codon; made in house; host or cells: Sf9 insect cells (baculovirus, pFastBacHis)
Assay: Inhibition against VEGFR2 kinase (receptor tyrosine kinase activity, HTRF method)
Type: biochemical
Conditions: His6-VEGFR2 cytoplasmic domain, biotin-poly(GT) substrate, ATP, 30° C. 10 minutes, read-out: IC50 (concentration required for 50% inhibition of VEGFR2 kinase activity)
Outline: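 Construct: His6-tagged VEGFR2 cytoplasmic domain (from Lys791), expressed in Sf9 cells. Kinase step: biotin-poly(Glu4:Tyr1) substrate, ATP added as 10 μl of 4 μM, Hepes pH 7.4 with Mg2+/Mn2+, 30 °C for 10 min, EDTA stop. Phosphotyrosine product measured by HTRF.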

T1 sequence (P35968 786-1356 limits assumed): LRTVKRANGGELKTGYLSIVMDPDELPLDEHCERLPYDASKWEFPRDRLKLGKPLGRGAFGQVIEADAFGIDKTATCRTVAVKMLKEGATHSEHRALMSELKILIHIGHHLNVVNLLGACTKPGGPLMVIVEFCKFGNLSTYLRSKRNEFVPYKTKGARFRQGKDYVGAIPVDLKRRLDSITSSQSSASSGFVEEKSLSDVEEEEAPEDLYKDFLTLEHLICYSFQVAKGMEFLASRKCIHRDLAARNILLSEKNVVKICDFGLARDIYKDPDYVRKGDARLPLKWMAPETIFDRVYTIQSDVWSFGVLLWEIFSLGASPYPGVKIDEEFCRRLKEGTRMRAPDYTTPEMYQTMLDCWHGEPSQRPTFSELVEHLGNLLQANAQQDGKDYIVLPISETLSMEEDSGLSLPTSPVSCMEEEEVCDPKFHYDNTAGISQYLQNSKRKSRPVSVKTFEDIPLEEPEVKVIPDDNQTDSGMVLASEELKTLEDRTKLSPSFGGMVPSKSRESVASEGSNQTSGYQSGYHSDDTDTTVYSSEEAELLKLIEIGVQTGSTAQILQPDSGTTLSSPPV

Structure (SMILES): N#CCCCOc1cc2nccc(Oc3ccc(NC(=O)Nc4ccc(F)cc4F)c(F)c3)c2cc1C#N [Example 55, N-(4-(6-Cyano-7-(3-cyanopropoxy)-4-quinolyl)oxy-2-fluorophenyl)-N′-(2,4-difluorophenyl)urea]
IC50: 29 nM

Structure (SMILES): COCCOc1cc2nccc(Oc3ccc(NC(=O)Nc4ccc(F)cc4)c(F)c3)c2cc1C#N [Example 100, N-(4-(6-Cyano-7-(2-methoxyethoxy)-4-quinolyl)oxy-2-fluorophenyl)-N′-(4-fluorophenyl)urea]
IC50: 9.6 nM

Structure (SMILES): NC(=O)c1cc2c(Oc3ccc(NC(=O)NC4CC4)c(F)c3)ccnc2cc1OCCCN1CCOCC1 [Example 374, 4-(4-(Cyclopropylaminocarbonyl)amino-3-fluorophenoxy)-7-(3-(4-morpholino)propoxy)-6-quinolinecarboxamide]
IC50: 8.4 nM

Compounds with a lower IC50, results first:

IC50: 6.5 nM
Structure (SMILES): COc1cc2nccc(Oc3ccc(NC(=O)NC4CC4)c(Cl)c3)c2cc1C(=O)NCCS(C)(=O)=O [Example 404, N6-(2-(Methylsulfonyl)ethyl)-4-(3-chloro-4-(((cyclopropylamino)carbonyl)amino)phenoxy)-7-methoxy-6-quinolinecarboxamide]

IC50: 6.4 nM
Structure (SMILES): CCNC(=O)n1ccc2cc(Oc3ccnc4cc(OC)c(C(N)=O)cc34)ccc21 [Example 316, 6-Carbamoyl-4-(1-ethylcarbamoyl-1H-indol-5-yloxy)-7-methoxyquinoline]
